Our source for the IC50 values is patent US8551984B2, “Aminopyrimidines as SYK inhibitors” (Merck Sharp & Dohme Corp., priority 2009, dated 2013).

The structures appear in SMILES notation. Some results are limits rather than exact numbers.

The first test concerns the target recombinant human SYK (GST-hSYK fusion protein) (Homo sapiens, UniProt P43405). The following applies: read-out: rhS YK Activity; Table 113C.
Excerpt: Homogeneous Time-Resolved Fluorescence (HTRF) Assay for the Recombinant Human SYK Enzyme:
`Cc1cc(Nc2nccc(C(C)C)n2)cc(-c2cnc(C3(O)CCCNCC3)s2)c1` (stereo not shown) [113C-14]: the IC50 is less than 100 nM.

The same test, now with this note: read-out: rhSYK Activity (IC50); recombinant human GST-SYK 5 pM, ATP 25 μM, biotinylated substrate peptide 250 nM, HTRF, 10-dose titration.
In the case of `Cc1cc(Nc2nccc(C(F)(F)F)n2)cc(-c2cnc(CNC(CO)C(C)O)s2)c1` (single isomer, unassigned) [Example 88A-44], the IC50 was less than 100 nM. As to `Cc1cc(Nc2nccc(C(C)O)n2)cc(-c2cnc(C3(O)CCC(C(=O)O)C(C)(C)C3)s2)c1` (single isomer, unassigned) [Example 100A-15], the IC50 was less than 100 nM. Turning to `Cc1cc(Nc2nccc(C(O)C3CC3)n2)cc(-c2cnc(C3(O)CCC(C(=O)O)C(C)(C)C3)s2)c1` (single isomer, unassigned) [Example 100A-19], the IC50 was less than 100 nM. On the same count and under the same terms, next, `Cc1cc(Nc2nccc(C(F)C3CC3)n2)cc(-c2cnc(C3(O)CCC(C(=O)O)C(C)(C)C3)s2)c1` (single isomer, unassigned) [Example 100A-22]: less than 100 nM; `Cc1cc(Nc2nccc(C(C)(O)C3CC3)n2)cc(-c2cnc(C3(O)CCC(C(=O)O)C(C)(C)C3)s2)c1` (single isomer, unassigned) [Example 100A-26]: less than 100 nM.

Staying with this test, now noted: read-out: rhSYK Activity; Table 8A.
`Cc1cc(Nc2nccc(C(F)(F)F)n2)cc(-c2cnc(C3(O)CCC(O)C(C)(C)C3)s2)c1` (stereo not shown) [8A-7]: the IC50 was less than 100 nM.

The same test, now with this note: read-out: rhSYK Activity; Table 33-A.
As for `CC1(C)CC(O)(c2ncc(-c3cc(Nc4nccc(C(F)(F)F)n4)cc(C(F)F)c3)s2)CCC1C(=O)O` (single isomer, unassigned) [Example 33A-58], the IC50 is less than 100 nM. As for `CC1(C)CC(O)(c2ncc(-c3cc(F)cc(Nc4nccc(C(F)(F)F)n4)c3)s2)CCC1C(=O)O` (single isomer, unassigned) [Example 33A-64], the IC50 was less than 100 nM. Consider `CC1(C)CC(O)(c2ncc(-c3cccc(Nc4nccc(C(F)(F)F)n4)c3)s2)CCC1C(=O)O` (single isomer, unassigned) [Example 33A-67], for which the IC50 was less than 100 nM. With `COc1ccnc(Nc2cc(C)cc(-c3cnc(C4(O)CCC(C(=O)O)C(C)(C)C4)s3)c2)n1` (single isomer, unassigned) [Example 33A-73], the IC50 was less than 100 nM.

`Cc1cc(Nc2nccc(C(F)(F)F)n2)cc(-c2cnc(C3(O)CCC(C(=O)O)C(C)(C)C3C)s2)c1` (single isomer, unassigned) [Example 33A-78]: the IC50 is less than 100 nM. `Cc1cc(Nc2nccc(C(F)(F)F)n2)cc(-c2cnc(C3(O)CCC(C(=O)O)CC3)s2)c1` (stereo not shown) [Example 33A-6]: the IC50 is less than 100 nM. On to `Cc1cc(Nc2nccc(C(F)(F)F)n2)cc(-c2cnc(C3(O)CCC(CCC(=O)O)CC3)s2)c1` (stereo not shown) [Example 33A-19], for which the IC50 was less than 100 nM. In the case of `Cc1cc(Nc2nccc(C(F)(F)F)n2)cc(-c2cnc(C3(O)CCC(CCC(=O)O)CC3)s2)c1` (stereo not shown) [Example 33A-20], the IC50 is less than 100 nM. Same read-out and setting: next, `Cc1cc(Nc2nccc(C)n2)cc(-c2cnc(C3(O)CCC(CC(=O)O)CC3)s2)c1` (stereo not shown) [Example 33A-33]: less than 100 nM; `COc1ccnc(Nc2cc(C)cc(-c3cnc(C4(O)CCC(C(=O)O)CC4)s3)c2)n1` (stereo not shown) [Example 33A-36]: less than 100 nM; `COc1ccnc(Nc2cc(C)cc(-c3cnc(C4(O)CCC(C)(C(=O)O)CC4)s3)c2)n1` (stereo not shown) [Example 33A-37]: less than 100 nM. On to `Cc1cc(Nc2ncc(F)c(C3CC3)n2)cc(-c2cnc(C3(O)CCC(C(=O)O)C(C)(C)C3)s2)c1` (stereo not shown) [Example 33A-41], for which the IC50 was less than 100 nM.

Still in this test, the particulars now being: read-out: rhSYK Activity; Table 33B.
Turning to `Cc1cc(Nc2nccc(C(F)(F)F)n2)cc(-c2cnc(C3(O)CCC(CC(=O)O)C3)s2)c1` (single isomer, unassigned) [Example 33B-26], the IC50 was less than 100 nM. Consider `Cc1cc(Nc2nccc(C(F)(F)F)n2)cc(-c2cnc(C3(O)CCC(CC(=O)O)C3)s2)c1` (single isomer, unassigned) [Example 33B-27], for which the IC50 is less than 100 nM. Regarding `Cc1cc(Nc2nccc(C(F)(F)F)n2)cc(-c2cnc(C3(O)CCC(CC(=O)O)C3)s2)c1` (single isomer, unassigned) [Example 33B-28], the IC50 is less than 100 nM.

Staying with this test, now noted: read-out: rhSYK Activity; Table 33C.
On to `Cc1cc(Nc2nccc(C(F)(F)F)n2)cc(-c2cnc(C3(O)CC[C@H]4C(C(=O)O)[C@H]43)s2)c1` (single isomer, unassigned) [Example 33C-7], for which the IC50 was less than 100 nM.

In the case of `Cc1cc(Nc2nccc(C(F)(F)F)n2)cc(-c2cnc(C3(O)CC[C@H]4C(C(=O)O)[C@H]43)s2)c1` (single isomer, unassigned) [Example 33C-8], the IC50 is less than 100 nM.

Staying with this test, now noted: read-out: rhSYK Activity; Table 33D.
Turning to `Cc1cc(Nc2nccc(C(F)(F)F)n2)cc(-c2cnc(C(C)(O)CCC(C)(C)C(=O)O)s2)c1` (single isomer, unassigned) [Example 33D-2], the IC50 is less than 100 nM. On to `Cc1cc(Nc2nccc(C(F)(F)F)n2)cc(-c2cnc(C(C)(O)c3ccc(C(=O)O)s3)s2)c1` (single isomer, unassigned) [Example 33D-22], for which the IC50 is less than 100 nM.

Staying with this test, now noted: read-out: rhSYK Activity; Table 54B.
In the case of `Cc1cc(Nc2nccc(C(F)(F)F)n2)cc(-c2cnc(C3(O)CCN(C(N)=O)C3)s2)c1` (stereo not shown) [54B-3], the IC50 was less than 100 nM.

For the molecule `Cc1cc(Nc2nccc(C(F)(F)F)n2)cc(-c2cnc(C3(O)CCN(C(N)=O)C3)s2)c1` (stereo not shown) [54B-7], the IC50 was less than 100 nM. In the case of `Cc1cc(Nc2nccc(C)n2)cc(-c2cnc(C3(O)CCN(C(N)=O)C3)s2)c1` (stereo not shown) [54B-14], the IC50 is less than 100 nM. In the case of `Cc1cc(Nc2nccc(C)n2)cc(-c2cnc(C3(O)CCN(C(N)=O)C3)s2)c1` (stereo not shown) [54B-15], the IC50 was less than 100 nM.

Still in this test, the particulars now being: read-out: rhSYK Activity; Table 54D.
In the case of `Cc1cc(Nc2nccc(C(F)(F)F)n2)cc(-c2cnc(C3(O)CCCN(C(=O)CC(N)=O)CC3)s2)c1` (single isomer, unassigned) [Example 54D-21], the IC50 is less than 100 nM.

As for `Cc1cc(Nc2nccc(C(F)(F)F)n2)cc(-c2cnc(C3(O)CCCN(C(=O)CC(=O)O)CC3)s2)c1` (single isomer, unassigned) [Example 54D-26], the IC50 is less than 100 nM. Consider `Cc1cc(Nc2nccc(C(F)(F)F)n2)cc(-c2cnc(C3(O)CCCN(C(=O)C(O)CO)CC3)s2)c1` (single isomer, unassigned) [Example 54D-29], for which the IC50 is less than 100 nM. On to `Cc1cc(Nc2nccc(C(F)(F)F)n2)cc(-c2cnc(C3(O)CCCN(C(=O)c4cnn[nH]4)CC3)s2)c1` (single isomer, unassigned) [Example 54D-37], for which the IC50 was less than 100 nM. With `Cc1cc(Nc2nccc(C(F)(F)F)n2)cc(-c2cnc(C3(O)CCCN(C(=O)c4cnon4)CC3)s2)c1` (single isomer, unassigned) [Example 54D-39], the IC50 was less than 100 nM.

Turning to `Cc1cc(Nc2nccc(C(F)(F)F)n2)cc(-c2cnc(C3(O)CCCN(C(=O)CCC(N)=O)CC3)s2)c1` (single isomer, unassigned) [Example 54D-42], the IC50 is less than 100 nM.

Regarding `Cc1cc(Nc2nccc(C(F)(F)F)n2)cc(-c2cnc(C3(O)CCCN(C(=O)c4cnnn4C)CC3)s2)c1` (single isomer, unassigned) [Example 54D-51], the IC50 is less than 100 nM. As for `Cc1cc(Nc2nccc(C(F)(F)F)n2)cc(-c2cnc(C3(O)CCCN(C(=O)Cn4ccnn4)CC3)s2)c1` (single isomer, unassigned) [Example 54D-53], the IC50 was less than 100 nM. Consider `Cc1cc(Nc2nccc(C(F)(F)F)n2)cc(-c2cnc(C3(O)CCCN(C(=O)c4nnnn4C)CC3)s2)c1` (single isomer, unassigned) [Example 54D-58], for which the IC50 was less than 100 nM. For the molecule `Cc1cc(Nc2nccc(C(F)(F)F)n2)cc(-c2cnc(C3(O)CCCN(C(=O)Cc4nnn[nH]4)CC3)s2)c1` (single isomer, unassigned) [Example 54D-60], the IC50 was less than 100 nM. Take `CCOC(=O)CC(=O)N1CCCC(O)(c2ncc(-c3cc(C)cc(Nc4nccc(C(F)(F)F)n4)c3)s2)CC1` (single isomer, unassigned) [Example 54D-74]: the IC50 is less than 100 nM.

Consider `Cc1cc(Nc2nccc(C(F)(F)F)n2)cc(-c2cnc(C3(O)CCCN(C(=O)C(C)(CO)CO)CC3)s2)c1` (single isomer, unassigned) [Example 54D-80], for which the IC50 is less than 100 nM. In the case of `Cc1cc(Nc2nccc(C(F)(F)F)n2)cc(-c2cnc(C3(O)CCCN(C(=O)c4[nH]nnc4Cl)CC3)s2)c1` (single isomer, unassigned) [Example 54D-101], the IC50 was less than 100 nM. For the molecule `Cc1cc(Nc2nccc(C(F)(F)F)n2)cc(-c2cnc(C3(O)CCCN(C(=O)c4nn[nH]c4C(F)(F)F)CC3)s2)c1` (single isomer, unassigned) [Example 54D-108], the IC50 is less than 100 nM. In the case of `Cc1cc(Nc2nccc(C(F)(F)F)n2)cc(-c2cnc(C3(O)CCCN(C(=O)c4n[nH]c(C(F)(F)F)n4)CC3)s2)c1` (single isomer, unassigned) [Example 54D-110], the IC50 was less than 100 nM. Turning to `Cc1cc(Nc2nccc(C(F)(F)F)n2)cc(-c2cnc(C3(O)CCCN(S(N)(=O)=O)CC3)s2)c1` (single isomer, unassigned) [Example 54D-117], the IC50 was less than 100 nM.

For the molecule `Cc1cc(Nc2nccc(C(F)(F)F)n2)cc(-c2cnc(C3(O)CCCN(C(N)=O)CC3)s2)c1` (single isomer, unassigned) [Example 54D-120], the IC50 is less than 100 nM. As for `Cc1cc(Nc2nccc(C(F)(F)F)n2)cc(-c2cnc(C3(O)CCCN(C(=O)CO)CC3)s2)c1` (single isomer, unassigned) [Example 54D-123], the IC50 is less than 100 nM. On to `Cc1cc(Nc2nccc(C(F)(F)F)n2)cc(-c2cnc(C3(O)CCCN(C(=O)c4nc[nH]n4)CC3)s2)c1` (single isomer, unassigned) [Example 54D-125], for which the IC50 is less than 100 nM.

Still in this test, the particulars now being: read-out: rhSYK Activity; Table 74A.
Take `CC(C)(c1ncc(-c2cc(F)cc(Nc3nccc(C(F)(F)F)n3)c2)s1)S(N)(=O)=O` [74A-10]: the IC50 fell in the range of 100 to 1000 nM.

Still in this test, the particulars now being: read-out: rhSYK Activity; Table 116A.
Turning to `Cc1cc(Nc2nccc(C(F)F)n2)cc(-c2cnc(C3(O)CCC(C(=O)O)C(C)C3)s2)c1` (stereo not shown) [116A-19], the IC50 was less than 100 nM.

On to `Cc1cc(Nc2ncc(Cl)c(C)n2)cc(-c2cnc([C@]3(O)CC[C@@H](C(=O)O)C(C)(C)C3)s2)c1` [116A-26], for which the IC50 is less than 100 nM.
